Reference: paper PMC10450872 (ACS Central Science, 2023)
Where “and” joins values, the source holds several entries; their conditions need not be identical. Equal values may be shown once.

Experiments:
hKOR (OPRK1) = biological target: T1, hKOR (OPRK1) (Homo sapiens, UniProt P41145); test: cell-based; conditions: for Emax: CHO, read-out: cAMP Emax
T1 construct: 3HA (triple haemagglutinin tag); expressed in transfected cells

hKOR [1] = biological target: T2, hKOR (Homo sapiens, UniProt P41145); type: cell-based;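 on Emax: 100% = maximum response to 10 µM U69,593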
T2 construct: β-galactosidase enzyme fragment for EFC (ProLink tag of the PathHunter system; name and presence on the receptor from own knowledge); host or cells: U2OS-β-arrestin2-EFC-hKOR (PathHunter) cells

hKOR [2] = biological target: T2, hKOR; test: cell-based; conditions: for Emax: read-out: βarrestin2 Emax; for EC50: βarrestin2 pEC50
human MOR (OPRM1) = biological target: T3, human MOR (OPRM1) (Homo sapiens, UniProt P35372); type: cell-based
T3 construct: expressed in transfected cells

[3] = mean EC50 of inhibition of forskolin-stimulated cAMP accumulation via KOR
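Wherever Emax is given: 100% = maximum response to 10 µM U69,593.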

T2 sequence (P41145 whole entry, the tested form may be a part): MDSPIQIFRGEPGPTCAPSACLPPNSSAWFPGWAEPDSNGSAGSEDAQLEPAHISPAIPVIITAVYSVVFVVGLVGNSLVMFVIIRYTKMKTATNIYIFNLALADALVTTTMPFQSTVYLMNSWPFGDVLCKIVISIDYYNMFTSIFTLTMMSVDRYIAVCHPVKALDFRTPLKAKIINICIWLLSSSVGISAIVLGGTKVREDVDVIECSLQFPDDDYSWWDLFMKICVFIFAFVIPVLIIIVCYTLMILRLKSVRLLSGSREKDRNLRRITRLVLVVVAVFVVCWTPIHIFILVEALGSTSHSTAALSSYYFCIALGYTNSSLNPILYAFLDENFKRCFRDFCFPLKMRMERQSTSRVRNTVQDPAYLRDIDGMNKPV
T1 sequence (P41145 whole entry): as the sequence (P41145 whole entry, the tested form may be a part) above
T3 sequence (P35372 whole entry): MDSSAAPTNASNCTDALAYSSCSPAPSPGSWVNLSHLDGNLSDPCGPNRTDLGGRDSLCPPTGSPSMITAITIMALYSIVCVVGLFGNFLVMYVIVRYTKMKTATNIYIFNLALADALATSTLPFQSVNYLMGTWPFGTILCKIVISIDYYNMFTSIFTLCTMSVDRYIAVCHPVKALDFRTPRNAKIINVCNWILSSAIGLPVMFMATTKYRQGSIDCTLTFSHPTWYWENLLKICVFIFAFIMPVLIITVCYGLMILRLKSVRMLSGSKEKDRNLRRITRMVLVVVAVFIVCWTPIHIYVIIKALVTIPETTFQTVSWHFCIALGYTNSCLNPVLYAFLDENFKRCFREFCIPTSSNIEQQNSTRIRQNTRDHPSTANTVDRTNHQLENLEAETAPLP

SMILES | Emax (hKOR (OPRK1)) [%] | EC50 (hKOR (OPRK1); cAMP pEC50) [nM] | EC50 (hKOR (OPRK1); [3]) [nM] | Bias Factor (hKOR [1]) | ΔΔLogτ/KA (cAMP/βarr2) (hKOR [1]) | Emax (hKOR [2]) [%] | EC50 (hKOR [2]) [nM] | cAMP Emax (hKOR (OPRK1)) | βarrestin2 Emax (hKOR [2]) | increase of potency on replacement of the 3-furyl (hKOR (OPRK1)) [fold] | selectivity for KOR over MOR (human MOR (OPRM1))
COC(=O)[C@@H]1C[C@H](OC(C)=O)C(=O)[C@@H]2[C@H]3CC=CC(=O)[C@@H]3CC[C@]21C [17a] | 96 | 10700 | > 10000 | – | – | – | – | – | – | – | –
COC(=O)[C@@H]1C[C@H](OC(C)=O)C(=O)[C@@H]2[C@H]3C[C@@H](c4cccc(O)c4)CC(=O)[C@@H]3CC[C@]21C [22a] | 97 | 309 | – | 0.72 | 1.397 | 81 | 5890 | – | – | – | –
COC(=O)[C@@H]1C[C@H](OC(C)=O)C(=O)[C@@H]2[C@H]3C[C@H](c4cccc(O)c4)CC(=O)[C@@H]3CC[C@]21C [22b] | 95 | 912 | – | – | – | – | – | – | – | – | –
COC(=O)[C@@H]1C[C@H](OC(C)=O)C(=O)[C@@H]2[C@H]3C[C@@H](c4ccccc4)CC(=O)[C@@H]3CC[C@]21C [24a] | 98 | 9.12 | – | 0.39 | 2.554 | 120 | 219 | – | – | – | –
COC(=O)[C@@H]1C[C@H](OC(C)=O)C(=O)[C@@H]2[C@H]3C[C@H](c4ccccc4)CC(=O)[C@@H]3CC[C@]21C [24b] | 100 | 63.1 | – | 0.32 | 3.153 | 109 | 891 | – | – | – | –
C#CC1(O)CC(c2ccccc2)CC2C1CCC1(C)C(C(=O)OC)CC(OC(C)=O)C(=O)C21 (centres unmarked) [40a] | – | – | 6.9 | 9.83 and 7.4–9.8 | 0.102 | – | 741 | 105 | 80 | – | –
C#CC1(O)CC(c2ccccc2)CC2C1CCC1(C)C(C(=O)OC)CC(OC(C)=O)C(=O)C21 (centres unmarked) [40b] | 104 | – | 4.4 | 7.44 and 7.4–9.8 | 0.134 | 92 | 794 | – | – | – | –
COC(=O)C1CC(OC(C)=O)C(=O)C2C3CC(c4ccoc4)CC(O)C3CCC12C (centres unmarked) [41a] | – | 5.01 | 5.1 | 1.33 | 0.754 | – | 123 | 102 | 85 | – | –
COC(=O)C1CC(OC(C)=O)C(=O)C2C3CC(c4ccoc4)CC(O)C3CCC12C (centres unmarked) [41b] | 103 | 0.363 | 0.4 | 2.06 | 0.486 | 86 | 14.1 | – | – | – | –
COC(=O)[C@@H]1C[C@H](OC(C)=O)C(=O)[C@@H]2[C@H]3C[C@@H](c4ccoc4)CC(=O)[C@@H]3CC[C@]21C [compound 1, O6C-20-nor-SalA] | 96 | – | – | 0.34 | – | 108 | – | – | – | – | –
COC(=O)[C@@H]1C[C@H](OC(C)=O)C(=O)[C@@H]2[C@H]3C[C@H](c4ccoc4)CC(=O)[C@@H]3CC[C@]21C [compound 18] | 91 | – | – | 0.23 | – | 91 | – | – | – | – | –
COC(=O)[C@@H]1C[C@H](OC(C)=O)C(=O)[C@@H]2[C@H]3C[C@@H](c4ccsc4)CC(=O)[C@@H]3CC[C@]21C [compound 19] | 101 | 1.48 | – | 1.11 | 0.898 | 105 | 72.4 | – | – | – | –
COC(=O)[C@@H]1C[C@H](OC(C)=O)C(=O)[C@@H]2[C@H]3C[C@@H](c4cccnc4)CC(=O)[C@@H]3CC[C@]21C [compound 20] | 105 | 468 | – | 0.17 | 5.896 | 88 | 2040 | – | – | – | –
COC(=O)[C@@H]1C[C@H](OC(C)=O)C(=O)[C@@H]2[C@H]3C[C@@H](c4ccncc4)CC(=O)[C@@H]3CC[C@]21C [compound 21] | 93 | 302 | – | 0.23 | 4.409 | 94 | 3310 | – | – | – | –
COC(=O)[C@@H]1C[C@H](OC(C)=O)C(=O)[C@@H]2[C@H]3C[C@@H](c4ccnc(OC)c4)CC(=O)[C@@H]3CC[C@]21C [compound 23] | – | – | 3390 | – | – | – | – | – | – | – | –
COC(=O)[C@@H]1C[C@H](OC(C)=O)C(=O)[C@@H]2[C@H]3C[C@@H](c4ccnc5ccccc45)CC(=O)[C@@H]3CC[C@]21C [compound 25] | 95 | 631 | – | – | – | – | – | – | – | – | –
COC(=O)[C@@H]1C[C@H](OC(C)=O)C(=O)[C@@H]2[C@H]3C[C@@H](c4coc5ccccc45)CC(=O)[C@@H]3CC[C@]21C [compound 26] | 104 | 41.7 | – | 1.87 | 0.536 | 100 | 2340 | – | – | – | –
COC(=O)[C@@H]1C[C@H](OC(C)=O)C(=O)[C@@H]2[C@H]3C[C@@H](c4c[nH]c5ccccc45)CC(=O)[C@@H]3CC[C@]21C [compound 27] | 92 | 331 | – | 3.96 | 0.252 | 14 | 2040 | – | – | – | –
COC(=O)[C@@H]1C[C@H](OC(C)=O)C(=O)[C@@H]2[C@H]3C[C@@H](c4ccc(C)cc4)CC(=O)[C@@H]3CC[C@]21C [compound 28] | 93 | 398 | – | 3.88 | 0.258 | 14 | 1860 | – | – | – | –
COC(=O)[C@@H]1C[C@H](OC(C)=O)C(=O)[C@@H]2[C@H]3C[C@@H](c4ccc(Cl)cc4)CC(=O)[C@@H]3CC[C@]21C [compound 29] | 103 | 67.6 | – | 3.16 | 0.316 | 51 | 851 | – | – | – | –
COC(=O)[C@@H]1C[C@H](OC(C)=O)C(=O)[C@@H]2[C@H]3C[C@@H](c4cccc(C)c4)CC(=O)[C@@H]3CC[C@]21C [compound 30] | 105 | 14.5 | 15 | 1.26 | 0.797 | 115 | 794 | – | – | – | –
COC(=O)[C@@H]1C[C@H](OC(C)=O)C(=O)[C@@H]2[C@H]3C[C@@H](c4cccc(Cl)c4)CC(=O)[C@@H]3CC[C@]21C [compound 31] | 103 | 4.27 | 4.2 | 2.50 | 0.399 | 123 | 631 | – | – | – | –
COC(=O)[C@@H]1C[C@H](OC(C)=O)C(=O)[C@@H]2[C@H]3C[C@@H](C4=CCCCC4)CC(=O)[C@@H]3CC[C@]21C [compound 32] | – | – | 0.3 | – | – | – | – | – | – | 20 | –
COC(=O)[C@@H]1C[C@H](OC(C)=O)C(=O)[C@@H]2[C@H]3C[C@@H](Sc4ccccc4)CC(=O)[C@@H]3CC[C@]21C [compound 33] | 92 | – | 96 | 0.51 | 1.946 | 131 | 4270 | – | – | – | –
COC(=O)[C@@H]1C[C@H](OC(C)=O)C(=O)[C@@H]2[C@H]3C[C@@H](c4ccccc4)CC(=O)N[C@@H]3CC[C@]21C [compound 35] | 107 | – | 46 | 5.48 | 0.182 | 67 | 1820 | – | – | – | –
COC(=O)C1CC(OC(C)=O)C(=O)C2C3CC(c4ccoc4)CC(=NO)C3CCC12C (centres unmarked) [compound 36] | 105 | 0.347 | 0.4 | 2.66 | 0.375 | 83 | 12.9 | – | – | – | –
COC(=O)C1CC(OC(C)=O)C(=O)C2C3CC(c4ccccc4)CC(=NO)C3CCC12C (centres unmarked) [compound 37] | 105 | 0.417 | 0.4 | 8.60 and 7.4–9.8 | 0.116 | 80 | 42.7 | – | – | – | high selectivity for KOR over MOR was also preserved
CON=C1CC(c2ccccc2)CC2C1CCC1(C)C(C(=O)OC)CC(OC(C)=O)C(=O)C21 (centres unmarked) [compound 38] | 100 | 2.95 | – | 2.28 | 0.439 | 98 | 245 | – | – | – | –
COC(=O)C1CC(OC(C)=O)C(=O)C2C3CC(c4ccccc4)CC(=NOC(C)=O)C3CCC12C (centres unmarked) [compound 39] | 105 | 1.26 | – | 5.43 | 0.184 | 83 | 97.7 | – | – | – | –
